Measurements published in patent publication US8354269B2 (priority 2008, dated 2013).
Like-named read-outs stand apart in the source and are kept apart here.

What was measured:
[1] = tested on: Clostridium ljungdahlii DSM13528
Text: Growth was monitored by measuring the optical density at 600 nm (OD600nm) and metabolites were detected by HPLC.

[2] = tested on: Clostridium autoethanogenum culture 19630
Protocol: Sterile 234 ml serum bottles were purged three times with 95% CO, 5% CO2 gas and then evacuated to a vacuum of −5 psi. The serum bottles were charged with 25 ml of LM33 media. Additional NiCl2 solutions were optionally added to the serum bottle (to final concentrations of 0.1 mM and 1 mM) which were inoculated with 1 ml of an actively growing Clostridium autoethanogenum culture 19630 from a continuous bioreactor. The headspace of the serum bottle was then filled with CO containing gas to 30 psi (composition 100% CO). The serum bottles were incubated at 37° C. and continuously agitated. Samples were taken at intervals and the headspace was purged and refreshed up to 30 psi following sampling.

[3] = tested on: Clostridium autoethanogenum culture 19630; conditions: NiCl2 1 mM, fructose 3 g/L
Protocol: To determine the cell density in these experiments, the absorbance of the samples was measured at 600 nm (spectrophotometer) and the dry mass determined by extrapolation.
High Performance Liquid Chromatography (HPLC) was used to characterize the level of substrates and products such as for acetate, ethanol, fructose, xylose and pyruvate. HPLC System Agilent 1100 Series. Mobile Phase: 0.0025N Sulphuric Acid. Flow and pressure: 0.800 mL/min. Column: Alltech IOA; Catalog #9648, 150×6.5 mm, particle size 5 μm. Temperature of column: 60° C. Detector: Refractive Index. Temperature of detector: 45° C.
Method for sample preparation: 400 μL of sample+50 μL of 0.15M ZnSO4+50 μL of 0.15M Ba(OH)2 into an Eppendorf tube. Centrifuge 10 min at 12,000 rpm, 4° C. Transfer 200 μL supernatant into an HPLC vial and inject into the HPLC instrument 5 μL.
Sterile 234 ml serum bottles were purged three times with 95% CO, 5% CO2 gas and then evacuated to a vacuum of −5 psi. The serum bottles were charged with 25 ml of LM33 media. NiCl2 solution (to final concentrations of 1 mM) and fructose (3 g/L) were added to the serum bottle which was inoculated with 1 ml of an actively growing Clostridium autoethanogenum culture 19630 from a continuous bioreactor. The headspace of the serum bottle was then filled with CO containing gas to 30 psi (composition 100% CO). The serum bottles were incubated at 37° C. and continuously agitated. Samples were taken at intervals and the headspace was purged and refreshed up to 30 psi following sampling.

SMILES: [Cl][Ni][Cl] [Nickel, nickel chloride]
- Ethanol ([1]; Nickel 200 μM, 0 h): 0.23 ± 0.02 g/L
- OD600 nm ([1]; Nickel 200 μM, 0 h): 0.010 ± 0.001
- Acetate ([1]; Nickel 200 μM, 30 h): 0.07 ± 0.07 g/L
- Ethanol ([1]; Nickel 200 μM, 30 h): 0.23 ± 0.02 g/L
- OD600 nm ([1]; Nickel 200 μM, 30 h): 0.057 ± 0.003
- Acetate ([1]; Nickel 200 μM, 54 h): 0.24 ± 0.10 g/L
- Ethanol ([1]; Nickel 200 μM, 54 h): 0.27 ± 0.03 g/L
- OD600 nm ([1]; Nickel 200 μM, 54 h): 0.163 ± 0.053
- Acetate ([1]; Nickel 200 μM, 102 h): 0.38 ± 0.10 g/L
- Ethanol ([1]; Nickel 200 μM, 102 h): 0.57 ± 0.11 g/L
- OD600 nm ([1]; Nickel 200 μM, 102 h): 0.273 ± 0.001
- Acetate ([1]; Nickel 200 μM, 127 h): 0.77 ± 0.24 g/L
- Ethanol ([1]; Nickel 200 μM, 127 h): 0.58 ± 0.07 g/L
- OD600 nm ([1]; Nickel 200 μM, 127 h): 0.284 ± 0.010
- Ethanol ([1]; Nickel 400 μM, 0 h): 0.22 ± 0.02 g/L
- OD600 nm ([1]; Nickel 400 μM, 0 h): 0.011 ± 0.002
- Ethanol ([1]; Nickel 400 μM, 30 h): 0.22 ± 0.01 g/L
- OD600 nm ([1]; Nickel 400 μM, 30 h): 0.097 ± 0.024
- Acetate ([1]; Nickel 400 μM, 54 h): 0.15 ± 0.04 g/L
- Ethanol ([1]; Nickel 400 μM, 54 h): 0.21 ± 0.02 g/L
- OD600 nm ([1]; Nickel 400 μM, 54 h): 0.114 ± 0.030
- Acetate ([1]; Nickel 400 μM, 102 h): 0.20 ± 0.01 g/L
- Ethanol ([1]; Nickel 400 μM, 102 h): 0.53 ± 0.31 g/L
- OD600 nm ([1]; Nickel 400 μM, 102 h): 0.199 ± 0.103
- Acetate ([1]; Nickel 400 μM, 127 h): 0.30 ± 0.19 g/L
- Ethanol ([1]; Nickel 400 μM, 127 h): 0.77 ± 0.24 g/L
- OD600 nm ([1]; Nickel 400 μM, 127 h): 0.310 ± 0.017
- Ethanol ([1]; Nickel 700 μM, 0 h): 0.25 ± 0.01 g/L
- OD600 nm ([1]; Nickel 700 μM, 0 h): 0.009 ± 0.001
- Ethanol ([1]; Nickel 700 μM, 30 h): 0.24 ± 0.01 g/L
- OD600 nm ([1]; Nickel 700 μM, 30 h): 0.235 ± 0.076
- Acetate ([1]; Nickel 700 μM, 54 h): 0.21 ± 0.05 g/L
- Ethanol ([1]; Nickel 700 μM, 54 h): 0.35 ± 0.11 g/L
- OD600 nm ([1]; Nickel 700 μM, 54 h): 0.427 ± 0.182
- Acetate ([1]; Nickel 700 μM, 102 h): 0.24 ± 0.03 g/L
- Ethanol ([1]; Nickel 700 μM, 102 h): 0.73 ± 0.01 g/L
- OD600 nm ([1]; Nickel 700 μM, 102 h): 0.579 ± 0.062
- Acetate ([1]; Nickel 700 μM, 127 h): 0.34 ± 0.16 g/L
- Ethanol ([1]; Nickel 700 μM, 127 h): 0.82 ± 0.03 g/L
- OD600 nm ([1]; Nickel 700 μM, 127 h): 0.528 ± 0.054
- Ethanol ([1]; Nickel 1000 μM, 0 h): 0.24 ± 0.01 g/L
- OD600 nm ([1]; Nickel 1000 μM, 0 h): 0.011 ± 0.001
- Ethanol ([1]; Nickel 1000 μM, 30 h): 0.26 ± 0.01 g/L
- OD600 nm ([1]; Nickel 1000 μM, 30 h): 0.549 ± 0.049
- Acetate ([1]; Nickel 1000 μM, 54 h): 0.23 ± 0.02 g/L
- Ethanol ([1]; Nickel 1000 μM, 54 h): 0.42 ± 0.14 g/L
- OD600 nm ([1]; Nickel 1000 μM, 54 h): 0.691 ± 0.017
- Acetate ([1]; Nickel 1000 μM, 102 h): 0.31 ± 0.03 g/L
- Ethanol ([1]; Nickel 1000 μM, 102 h): 0.68 ± 0.26 g/L
- OD600 nm ([1]; Nickel 1000 μM, 102 h): 0.862 ± 0.324
- Acetate ([1]; Nickel 1000 μM, 127 h): 0.46 ± 0.03 g/L
- Ethanol ([1]; Nickel 1000 μM, 127 h): 0.98 ± 0.11 g/L
- OD600 nm ([1]; Nickel 1000 μM, 127 h): 0.853 ± 0.329
- total microbial cell density ([2]; 0.1 mM nickel above LM33): 1.1 g/L
- total microbial cell density ([2]; 1 mM nickel above LM33): 1.2 g/L
- Acetate ([2]; Additional Nickel 0.1 mM, 18 h): 0.57 g/L
- Cell density ([2]; Additional Nickel 0.1 mM, 18 h): 0.14 g/L
- Ethanol ([2]; Additional Nickel 0.1 mM, 18 h): 0.37 g/L
- Acetate ([2]; Additional Nickel 0.1 mM, 30 h): 0.61 g/L
- Cell density ([2]; Additional Nickel 0.1 mM, 30 h): 0.54 g/L
- Ethanol ([2]; Additional Nickel 0.1 mM, 30 h): 2.63 g/L
- Acetate ([2]; Additional Nickel 0.1 mM, 80 h): 0.38 g/L
- Cell density ([2]; Additional Nickel 0.1 mM, 80 h): 1.08 g/L
- Ethanol ([2]; Additional Nickel 0.1 mM, 80 h): 7.14 g/L
- Acetate ([2]; Additional Nickel 1 mM, 18 h): 0.48 g/L
- Cell density ([2]; Additional Nickel 1 mM, 18 h): 0.18 g/L
- Ethanol ([2]; Additional Nickel 1 mM, 18 h): 0.47 g/L
- Acetate ([2]; Additional Nickel 1 mM, 30 h): 0.85 g/L
- Cell density ([2]; Additional Nickel 1 mM, 30 h): 0.59 g/L
- Ethanol ([2]; Additional Nickel 1 mM, 30 h): 2.59 g/L
- Acetate ([2]; Additional Nickel 1 mM, 80 h): 0.66 g/L
- Cell density ([2]; Additional Nickel 1 mM, 80 h): 1.23 g/L
- Ethanol ([2]; Additional Nickel 1 mM, 80 h): 9.04 g/L
- Acetic Acid ([3]; 12 h after inoculation): 0.42 g/L
- Cell density ([3]; 12 h after inoculation): 0.16 g/L
- Ethanol ([3]; 12 h after inoculation): 0.25 g/L
- Fructose ([3]; 12 h after inoculation): 2.87 g/L
- Acetic Acid ([3]; 18 h after inoculation): 0.48 g/L
- Cell density ([3]; 18 h after inoculation): 0.20 g/L
- Ethanol ([3]; 18 h after inoculation): 0.61 g/L
- Fructose ([3]; 18 h after inoculation): 2.4 g/L
- Acetic Acid ([3]; 30 h after inoculation): 0.45 g/L
- Cell density ([3]; 30 h after inoculation): 0.73 g/L
- Ethanol ([3]; 30 h after inoculation): 4.19 g/L
- Fructose ([3]; 30 h after inoculation): 0 g/L
- Acetic Acid ([3]; 80 h after inoculation): 0.38 g/L
- Cell density ([3]; 80 h after inoculation): 0.98 g/L
- Ethanol ([3]; 80 h after inoculation): 7.60 g/L
- Fructose ([3]; 80 h after inoculation): 0 g/L
- Acetic Acid ([3]; 96 h after inoculation): 0.31 g/L
- Cell density ([3]; 96 h after inoculation): 1.07 g/L
- Ethanol ([3]; 96 h after inoculation): 7.81 g/L
- Fructose ([3]; 96 h after inoculation): 0 g/L
